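Each compound was tested at five concentrations against cells in 96-well plates for 48 hours. TGI: total growth inhibition.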
Experiments:
Experiment in all cases: inhibition of tumour cell growth, NCI panel, 48 h
COLO 205 colon = tested on: COLO 205 colon
SF-295 CNS = tested on: SF-295 CNS
NCI-H23 lung = tested on: NCI-H23 lung
M19-MEL melanoma = tested on: M19-MEL melanoma
TK-10 renal = tested on: TK-10 renal
LXFL 529 NSCLC = tested on: LXFL 529 NSCLC
HOP-18 NSCLC = tested on: HOP-18 NSCLC
MALME-3M melanoma = tested on: MALME-3M melanoma
K-562 leukemia = tested on: K-562 leukemia
NCI-H226 lung = tested on: NCI-H226 lung
KM12 colon = tested on: KM12 colon
OVCAR-5 ovarian = tested on: OVCAR-5 ovarian
ACHN renal = tested on: ACHN renal
HCT-116 colon = tested on: HCT-116 colon
UACC-62 melanoma = tested on: UACC-62 melanoma
SF-539 CNS = tested on: SF-539 CNS
CAKI-1 renal = tested on: CAKI-1 renal
HOP-62 NSCLC = tested on: HOP-62 NSCLC
IGROV1 ovarian = tested on: IGROV1 ovarian
SW-620 colon = tested on: SW-620 colon
SK-MEL-28 melanoma = tested on: SK-MEL-28 melanoma
HCT-15 colon = tested on: HCT-15 colon
RPMI-8226 leukemia = tested on: RPMI-8226 leukemia
SN12C renal = tested on: SN12C renal
A549 NSCLC = tested on: A549 NSCLC
HOP-92 NSCLC = tested on: HOP-92 NSCLC
SNB-78 CNS = tested on: SNB-78 CNS
UACC-257 melanoma = tested on: UACC-257 melanoma
SNB-19 CNS = tested on: SNB-19 CNS
MOLT-4 leukemia = tested on: MOLT-4 leukemia
SK-MEL-5 melanoma = tested on: SK-MEL-5 melanoma
OVCAR-4 ovarian = tested on: OVCAR-4 ovarian
M14 melanoma = tested on: M14 melanoma
U251 CNS = tested on: U251 CNS
DMS 114 small cell lung = tested on: DMS 114 small cell lung
DLD-1 colon = tested on: DLD-1 colon
NCI-H460 lung = tested on: NCI-H460 lung
KM20L2 colon = tested on: KM20L2 colon
HCC-2998 colon = tested on: HCC-2998 colon
NCI-H522 lung = tested on: NCI-H522 lung
OVCAR-3 ovarian = tested on: OVCAR-3 ovarian
786-0 renal = tested on: 786-0 renal
HT29 colon = tested on: HT29 colon
UO-31 renal = tested on: UO-31 renal
SK-OV-3 ovarian = tested on: SK-OV-3 ovarian
EKVX NSCLC = tested on: EKVX NSCLC
RXF-631 renal = tested on: RXF-631 renal
SNB-75 CNS = tested on: SNB-75 CNS
A498 renal = tested on: A498 renal
SF-268 CNS = tested on: SF-268 CNS
OVCAR-8 ovarian = tested on: OVCAR-8 ovarian
DMS 273 small cell lung = tested on: DMS 273 small cell lung
CCRF-CEM leukemia = tested on: CCRF-CEM leukemia
HL-60(TB) leukemia = tested on: HL-60(TB) leukemia
RXF 393 renal = tested on: RXF 393 renal
SR leukemia = tested on: SR leukemia
SK-MEL-2 melanoma = tested on: SK-MEL-2 melanoma
LOX IMVI melanoma = tested on: LOX IMVI melanoma

Measured: TGI

O=C(CCc1n[nH]c(=S)o1)Nc1cc(Cl)c(Cl)cc1Cl
63.6 µM: 786-0 renal
> 100 µM: COLO 205 colon | SF-295 CNS | NCI-H23 lung | M19-MEL melanoma | TK-10 renal | LXFL 529 NSCLC | HOP-18 NSCLC | MALME-3M melanoma | NCI-H226 lung | KM12 colon | OVCAR-5 ovarian | ACHN renal | UACC-62 melanoma | SF-539 CNS | CAKI-1 renal | HOP-62 NSCLC | IGROV1 ovarian | SK-MEL-28 melanoma | SN12C renal | A549 NSCLC | HOP-92 NSCLC | SNB-78 CNS | UACC-257 melanoma | SNB-19 CNS | MOLT-4 leukemia | SK-MEL-5 melanoma | OVCAR-4 ovarian | M14 melanoma | U251 CNS | DMS 114 small cell lung | NCI-H460 lung | KM20L2 colon | HCC-2998 colon | NCI-H522 lung | OVCAR-3 ovarian | HT29 colon | UO-31 renal | SK-OV-3 ovarian | EKVX NSCLC | RXF-631 renal | SNB-75 CNS | SF-268 CNS | OVCAR-8 ovarian | CCRF-CEM leukemia | HL-60(TB) leukemia
49.9 µM: HCT-15 colon
49 µM: K-562 leukemia
91.8 µM: A498 renal
30 µM: HCT-116 colon
86.3 µM: DLD-1 colon
31.4 µM: SW-620 colon
50.8 µM: RPMI-8226 leukemia
72.5 µM: DMS 273 small cell lung

Cc1ccccc1OCC(COC(=O)Nc1ccccc1)OC(=O)Nc1ccccc1 (configuration not stated)
68.7 µM: HL-60(TB) leukemia
27.8 µM: K-562 leukemia
89.4 µM: SNB-19 CNS
> 100 µM: COLO 205 colon | SF-295 CNS | NCI-H23 lung | M19-MEL melanoma | TK-10 renal | LXFL 529 NSCLC | MALME-3M melanoma | NCI-H226 lung | KM12 colon | OVCAR-5 ovarian | ACHN renal | HCT-116 colon | UACC-62 melanoma | CAKI-1 renal | HOP-62 NSCLC | IGROV1 ovarian | SW-620 colon | SK-MEL-28 melanoma | HCT-15 colon | RPMI-8226 leukemia | SN12C renal | A549 NSCLC | UACC-257 melanoma | MOLT-4 leukemia | SK-MEL-5 melanoma | OVCAR-4 ovarian | M14 melanoma | U251 CNS | SR leukemia | DMS 114 small cell lung | DLD-1 colon | NCI-H460 lung | KM20L2 colon | SK-MEL-2 melanoma | HCC-2998 colon | NCI-H522 lung | OVCAR-3 ovarian | HT29 colon | UO-31 renal | SK-OV-3 ovarian | EKVX NSCLC | RXF-631 renal | A498 renal | SF-268 CNS | OVCAR-8 ovarian | DMS 273 small cell lung | CCRF-CEM leukemia
86.6 µM: HOP-18 NSCLC
38.3 µM: SNB-75 CNS
79 µM: SNB-78 CNS
15.4 µM: SF-539 CNS
38.5 µM: HOP-92 NSCLC
43.5 µM: RXF 393 renal
55.9 µM: LOX IMVI melanoma

CCOCc1cc(=O)c2c(O)cc3c(c2o1)CCC(C)(C)O3
> 100 µM: COLO 205 colon | SF-295 CNS | NCI-H23 lung | M19-MEL melanoma | TK-10 renal | LXFL 529 NSCLC | HOP-18 NSCLC | MALME-3M melanoma | K-562 leukemia | NCI-H226 lung | ACHN renal | UACC-62 melanoma | SF-539 CNS | CAKI-1 renal | IGROV1 ovarian | SW-620 colon | SK-MEL-28 melanoma | HCT-15 colon | RPMI-8226 leukemia | SN12C renal | HOP-92 NSCLC | SNB-78 CNS | SNB-19 CNS | MOLT-4 leukemia | SK-MEL-5 melanoma | M14 melanoma | U251 CNS | DMS 114 small cell lung | DLD-1 colon | NCI-H460 lung | KM20L2 colon | SK-MEL-2 melanoma | NCI-H522 lung | OVCAR-3 ovarian | HT29 colon | UO-31 renal | SK-OV-3 ovarian | EKVX NSCLC | RXF-631 renal | SNB-75 CNS | A498 renal | SF-268 CNS | OVCAR-8 ovarian | LOX IMVI melanoma | DMS 273 small cell lung | CCRF-CEM leukemia | HL-60(TB) leukemia

CC1CCCP(=O)(c2ccccc2)CC1 (configuration not stated)
> 100 µM: COLO 205 colon | SF-295 CNS | NCI-H23 lung | M19-MEL melanoma | TK-10 renal | LXFL 529 NSCLC | MALME-3M melanoma | K-562 leukemia | KM12 colon | OVCAR-5 ovarian | ACHN renal | RXF 393 renal | UACC-62 melanoma | SF-539 CNS | CAKI-1 renal | HOP-62 NSCLC | IGROV1 ovarian | SW-620 colon | SK-MEL-28 melanoma | HCT-15 colon | RPMI-8226 leukemia | SN12C renal | A549 NSCLC | SNB-78 CNS | UACC-257 melanoma | SNB-19 CNS | MOLT-4 leukemia | SK-MEL-5 melanoma | OVCAR-4 ovarian | M14 melanoma | U251 CNS | DMS 114 small cell lung | DLD-1 colon | NCI-H460 lung | KM20L2 colon | SK-MEL-2 melanoma | HCC-2998 colon | OVCAR-3 ovarian | 786-0 renal | HT29 colon | UO-31 renal | SK-OV-3 ovarian | EKVX NSCLC | RXF-631 renal | SNB-75 CNS | A498 renal | SF-268 CNS | OVCAR-8 ovarian | LOX IMVI melanoma | DMS 273 small cell lung | CCRF-CEM leukemia
0.958 µM: HOP-18 NSCLC

C/C(=N\NC(C)(C)C)c1sc(-c2nc(C)c(/C(C)=N/NC(C)(C)C)s2)nc1C
> 100 µM: COLO 205 colon | SF-295 CNS | NCI-H23 lung | M19-MEL melanoma | LXFL 529 NSCLC | HOP-18 NSCLC | MALME-3M melanoma | K-562 leukemia | NCI-H226 lung | ACHN renal | RXF 393 renal | HCT-116 colon | UACC-62 melanoma | SF-539 CNS | CAKI-1 renal | IGROV1 ovarian | SW-620 colon | SK-MEL-28 melanoma | HCT-15 colon | RPMI-8226 leukemia | SN12C renal | A549 NSCLC | HOP-92 NSCLC | SNB-78 CNS | UACC-257 melanoma | SNB-19 CNS | MOLT-4 leukemia | SK-MEL-5 melanoma | OVCAR-4 ovarian | M14 melanoma | U251 CNS | SR leukemia | DMS 114 small cell lung | DLD-1 colon | KM20L2 colon | HCC-2998 colon | NCI-H522 lung | OVCAR-3 ovarian | 786-0 renal | HT29 colon | UO-31 renal | SK-OV-3 ovarian | EKVX NSCLC | RXF-631 renal | SNB-75 CNS | A498 renal | SF-268 CNS | OVCAR-8 ovarian | LOX IMVI melanoma | DMS 273 small cell lung | CCRF-CEM leukemia | HL-60(TB) leukemia
